Test: molar heat capacity at constant pressure; xn = mol fraction of the nth substance listed
Conditions: 100 kPa, Small sample (50 mg) DSC

[Cl-].[K+] [potassium chloride] + [Cl-].[Na+]
Conditions	molar heat capacity at constant pressure [J/K/mol]
298.15 K, Crystal of unknown type, x1 = 0.1	48.78
298.15 K, Crystal of unknown type, x1 = 0.2	51.33
298.15 K, Crystal of unknown type, x1 = 0.3	49.46
298.15 K, Crystal of unknown type, x1 = 0.4	50.77
298.15 K, Crystal of unknown type, x1 = 0.5	51.13
298.15 K, Crystal of unknown type, x1 = 0.6	48.93
298.15 K, Crystal of unknown type, x1 = 0.7	50.73
298.15 K, Crystal of unknown type, x1 = 0.75	50.05
298.15 K, Crystal of unknown type, x1 = 0.8	50.46
300 K, Crystal of unknown type, x1 = 0.1	48.81
300 K, Crystal of unknown type, x1 = 0.2	51.36
300 K, Crystal of unknown type, x1 = 0.3	49.49
300 K, Crystal of unknown type, x1 = 0.4	50.8
300 K, Crystal of unknown type, x1 = 0.5	51.16
300 K, Crystal of unknown type, x1 = 0.6	48.96
300 K, Crystal of unknown type, x1 = 0.7	50.76
300 K, Crystal of unknown type, x1 = 0.75	50.07
300 K, Crystal of unknown type, x1 = 0.8	50.47
350 K, Crystal of unknown type, x1 = 0.1	49.61
350 K, Crystal of unknown type, x1 = 0.2	52.11
350 K, Crystal of unknown type, x1 = 0.3	50.24
350 K, Crystal of unknown type, x1 = 0.4	51.4
350 K, Crystal of unknown type, x1 = 0.5	51.77
350 K, Crystal of unknown type, x1 = 0.6	49.81
350 K, Crystal of unknown type, x1 = 0.7	51.51
350 K, Crystal of unknown type, x1 = 0.75	50.42
350 K, Crystal of unknown type, x1 = 0.8	50.87
400 K, Crystal of unknown type, x1 = 0.1	50.41
400 K, Crystal of unknown type, x1 = 0.2	52.86
400 K, Crystal of unknown type, x1 = 0.3	50.99
400 K, Crystal of unknown type, x1 = 0.4	52
400 K, Crystal of unknown type, x1 = 0.5	52.39
400 K, Crystal of unknown type, x1 = 0.6	50.66
400 K, Crystal of unknown type, x1 = 0.7	52.26
400 K, Crystal of unknown type, x1 = 0.75	50.77
400 K, Crystal of unknown type, x1 = 0.8	51.27
450 K, Crystal of unknown type, x1 = 0.1	51.21
450 K, Crystal of unknown type, x1 = 0.2	53.61
450 K, Crystal of unknown type, x1 = 0.3	51.74
450 K, Crystal of unknown type, x1 = 0.4	52.6
450 K, Crystal of unknown type, x1 = 0.5	53.01
450 K, Crystal of unknown type, x1 = 0.6	51.51
450 K, Crystal of unknown type, x1 = 0.7	53.01
450 K, Crystal of unknown type, x1 = 0.75	51.12
450 K, Crystal of unknown type, x1 = 0.8	51.67
470 K, Crystal of unknown type, x1 = 0.1	51.53
470 K, Crystal of unknown type, x1 = 0.2	53.91
470 K, Crystal of unknown type, x1 = 0.3	52.04
470 K, Crystal of unknown type, x1 = 0.4	52.84
470 K, Crystal of unknown type, x1 = 0.5	53.25
470 K, Crystal of unknown type, x1 = 0.6	51.85
470 K, Crystal of unknown type, x1 = 0.7	53.31
470 K, Crystal of unknown type, x1 = 0.75	51.26
470 K, Crystal of unknown type, x1 = 0.8	51.83
500 K, Crystal of unknown type, x1 = 0.1	52.01
500 K, Crystal of unknown type, x1 = 0.2	54.36
500 K, Crystal of unknown type, x1 = 0.3	52.49
500 K, Crystal of unknown type, x1 = 0.4	53.2
500 K, Crystal of unknown type, x1 = 0.5	53.63
500 K, Crystal of unknown type, x1 = 0.6	52.36
500 K, Crystal of unknown type, x1 = 0.7	53.76
500 K, Crystal of unknown type, x1 = 0.75	51.47
500 K, Crystal of unknown type, x1 = 0.8	52.07
550 K, Crystal of unknown type, x1 = 0.1	52.81
550 K, Crystal of unknown type, x1 = 0.2	55.11
550 K, Crystal of unknown type, x1 = 0.3	53.24
550 K, Crystal of unknown type, x1 = 0.4	53.8
550 K, Crystal of unknown type, x1 = 0.5	54.24
550 K, Crystal of unknown type, x1 = 0.6	53.21
550 K, Crystal of unknown type, x1 = 0.7	54.51
550 K, Crystal of unknown type, x1 = 0.75	51.82
550 K, Crystal of unknown type, x1 = 0.8	52.47
600 K, Crystal of unknown type, x1 = 0.1	53.61
600 K, Crystal of unknown type, x1 = 0.2	55.86
600 K, Crystal of unknown type, x1 = 0.3	53.99
600 K, Crystal of unknown type, x1 = 0.4	54.4
600 K, Crystal of unknown type, x1 = 0.5	54.86
600 K, Crystal of unknown type, x1 = 0.6	54.06
600 K, Crystal of unknown type, x1 = 0.7	55.26
600 K, Crystal of unknown type, x1 = 0.75	52.17
600 K, Crystal of unknown type, x1 = 0.8	52.87
635 K, Crystal of unknown type, x1 = 0.8	53.15
635 K, Crystal, x1 = 0.8	52.52
650 K, Crystal of unknown type, x1 = 0.1	54.41
650 K, Crystal of unknown type, x1 = 0.2	56.61
650 K, Crystal of unknown type, x1 = 0.3	54.74
650 K, Crystal of unknown type, x1 = 0.4	55
650 K, Crystal of unknown type, x1 = 0.5	55.48
650 K, Crystal of unknown type, x1 = 0.6	54.91
650 K, Crystal of unknown type, x1 = 0.7	56.01
650 K, Crystal of unknown type, x1 = 0.75	52.52
650 K, Crystal, x1 = 0.8	52.97
683 K, Crystal of unknown type, x1 = 0.75	52.75
683 K, Crystal, x1 = 0.75	55.25
687 K, Crystal of unknown type, x1 = 0.7	56.56
687 K, Crystal, x1 = 0.7	53.53
700 K, Crystal of unknown type, x1 = 0.1	55.21
700 K, Crystal of unknown type, x1 = 0.2	57.36
700 K, Crystal of unknown type, x1 = 0.3	55.49
700 K, Crystal of unknown type, x1 = 0.4	55.6
700 K, Crystal of unknown type, x1 = 0.5	56.1
700 K, Crystal of unknown type, x1 = 0.6	55.76
700 K, Crystal, x1 = 0.7	54.17
700 K, Crystal, x1 = 0.75	56.4
700 K, Crystal, x1 = 0.8	54.47
733 K, Crystal of unknown type, x1 = 0.6	56.32
733 K, Crystal, x1 = 0.6	56.77
739 K, Crystal of unknown type, x1 = 0.1	55.83
739 K, Crystal, x1 = 0.1	55.59
750 K, Crystal of unknown type, x1 = 0.2	58.11
750 K, Crystal of unknown type, x1 = 0.3	56.24
750 K, Crystal of unknown type, x1 = 0.4	56.2
750 K, Crystal of unknown type, x1 = 0.5	56.71
750 K, Crystal, x1 = 0.1	55.9
750 K, Crystal, x1 = 0.6	57.39
750 K, Crystal, x1 = 0.7	56.62
750 K, Crystal, x1 = 0.75	59.8
750 K, Crystal, x1 = 0.8	55.97
753 K, Crystal of unknown type, x1 = 0.2	58.15
753 K, Crystal, x1 = 0.2	59.47
757 K, Crystal of unknown type, x1 = 0.5	56.8
757 K, Crystal, x1 = 0.5	57.77
769 K, Crystal of unknown type, x1 = 0.4	56.42
769 K, Crystal, x1 = 0.4	56.84
771 K, Crystal of unknown type, x1 = 0.3	56.56
771 K, Crystal, x1 = 0.3	57.44
800 K, Crystal, x1 = 0.1	57.3
800 K, Crystal, x1 = 0.2	61.35
800 K, Crystal, x1 = 0.3	58.49
800 K, Crystal, x1 = 0.4	58.24
800 K, Crystal, x1 = 0.5	59.38
800 K, Crystal, x1 = 0.6	59.19
800 K, Crystal, x1 = 0.7	59.07
800 K, Crystal, x1 = 0.75	63.2
800 K, Crystal, x1 = 0.8	57.47
850 K, Crystal, x1 = 0.1	58.7
850 K, Crystal, x1 = 0.2	63.35
850 K, Crystal, x1 = 0.3	60.29
850 K, Crystal, x1 = 0.4	60.49
850 K, Crystal, x1 = 0.5	61.26
850 K, Crystal, x1 = 0.6	60.99
850 K, Crystal, x1 = 0.7	61.52
850 K, Crystal, x1 = 0.75	66.6
850 K, Crystal, x1 = 0.8	58.97
900 K, Crystal, x1 = 0.1	60.1
900 K, Crystal, x1 = 0.2	65.35
900 K, Crystal, x1 = 0.3	62.09
900 K, Crystal, x1 = 0.4	62.74
900 K, Crystal, x1 = 0.5	63.13
900 K, Crystal, x1 = 0.6	62.79
900 K, Crystal, x1 = 0.7	63.97
900 K, Crystal, x1 = 0.75	70
900 K, Crystal, x1 = 0.8	60.47
930 K, Crystal, x1 = 0.5	64.25
930 K, Liquid, x1 = 0.5	81.03
950 K, Liquid, x1 = 0.5	82.5
1000 K, Liquid, x1 = 0.5	86.19
1050 K, Liquid, x1 = 0.5	89.88
1100 K, Liquid, x1 = 0.5	93.56

Reference: the NIST ThermoML archive (doi:10.1016/j.tca.2015.03.003)
